A short description of series [1]: toxicity and body weight in the MDA-MB-468 xenograft mouse study. The settings on record: after first 2 doses, dosed 3 times a week.
Description: 3 times a week. […] Therefore, the dose was reduced to only once a week.
The subject of series [2] is lymphocytic infiltration of the lacrimal gland. The series can be described thus: lymphocytic infiltration of the lacrimal gland in male NOD mice (autoimmune dacryoadenitis). In kind it is in vivo, mouse. The settings on record: 12 week old male NOD mice, tail vein, one week of treatment. From the text: The bottom panel is image analysis that was used to quantify % of tissue section containing lymphocyte foci. *p=0.003, **P=5×10·5, ***P=0.01, ****P=0.0009.

The subject of series [3] is interferon gamma (IFN gamma). The series can be described thus: interferon gamma expression in NOD mouse lacrimal gland, real time RT-PCR. The format is in vivo. As to conditions: NOD mice, 7-day treatment period. From the text:
Quantitation was achieved using real time RT-PCR. Expression of IFN-gamma was quantified after a 7-day treatment period with PBS, Free Rapa, and FSI Rapa.
(In general: Quantitative PCR measures a nucleic acid by following its amplification.)

The test system of series [4] is MDA-MB-468 rapamycin sensitive breast cancer cell line. Nature of the series: MTS cell viability assay, MDA-MB-468. The format is cell-based. The settings on record: MDA-MB-468 cell assay.
Protocol: Each mouse was injected with 3×10^6 MDA-MB-468 cells s.c. in mammary fat pads. […] 3 times a week. […] Therefore, the dose was reduced to only once a week.
For series [5] the following is noted: in vivo; cited from earlier work.
Series [6] in a line: dynamic light scattering (DLS) size of ELP nanoparticles. The format is physicochemical. The settings on record: concentration of 25 uM. The text has this:
ELP diblock copolymers with hydrophobic and hydrophilic guest residues at opposite ends of the polymer (e.g. (Val-Pro-Gly-Ile-Gly) 48(Val-Pro-Gly-Ser-Gly)48 (SEQ ID NO: 12) called I48S48) can form nanoparticles. A class of ELP block copolymers with hydrophobic block:hydrophilic block=1:1 have been confirmed to form different sizes of stable nanoparticles. For instances, (Val-Pro-Gly-Ile-Gly)48(Val-Pro-Gly-Ser-Gly)48 (SEQ ID NO: 12) short name: 148S48; (Val-Pro-Gly- Phe-Gly)24(Val-Pro-Gly-Ser-Gly)24 (SEQ ID NO: 13)) short name F24S24. Dynamic light scattering (DLS) can be applied to measure the size of ELP nanoparticles. At concentration of 25 uM, ELP block copolymer 148S48 forms 24 nm in radius nanoparticles; however, F24S24 forms nanoparticles with 15 nm hydrodynamic radius. In order to actually observe the morphology of ELP nanoparticles, transmission electron microscopy (TEM) and cryo-transmission electron microscopy (Cryo-TEM) can be applied. In TEM, 1% of Uranyl acetate solution is used to negatively stain ELP nanoparticles. Therefore, ELP nanoparticles are expected to be observed as hollow spheres. Different from TEM in which ELP samples are loaded on a grid and dry at room temperature. Cryo-TEM studies ELP samples at cryogenic temperatures, generally liquid nitrogen temperatures. […]

A short description of series [7]: Rapa encapsulation and release from ELP nanoparticles, dialysis under sink conditions, RP-HPLC. The format is physicochemical. The settings on record: preliminary experiments. The method, then:
Dialysis under sink conditions was used track the loss of Rapa from the nanoparticles. Mean±SD (n=3).
A two phase method was developed to encapsulate Rapa into the ELP nanoparticles. An aqueous phase PBS containing S48I48 or FKBP-S48I48 was mixed with an organic phase hexane/EtOH containing Rapa in a small glass vial. The vial was kept stirred and heated up to the CMT of S48I48 or FKBP-S48I48. A nitrogen flow was applied to facilitate the evaporation of the hexane/EtOH phase. A 13.2K 10 min centrifugation was performed to remove the insoluble Rapa after the organic phase evaporated out. 100 μL of the sample was filtered and injected into a C-18 reverse phase HPLC column to analyze the amount of the Rapa that was initially encapsulated. Rapa releasing experiment was performed under a sink condition of H2O dialysis. Samples were collected in the dialysis cassette at time points of 0 h, 1 h, 2 h, 4 h, 6 h, 9 h, 19.5 h, 27 h, 31 h and 48 h. RP-HPLC was used to determine the amount of Rapa that was retained inside the ELP nanoparticle core.

Regarding `CO[C@H]1C[C@@H]2CC[C@@H](C)[C@@](O)(O2)C(=O)C(=O)N2CCCC[C@H]2C(=O)O[C@H]([C@H](C)C[C@@H]2CC[C@@H](O)[C@H](OC)C2)CC(=O)[C@H](C)/C=C(\C)[C@@H](O)[C@@H](OC)C(=O)[C@H](C)C[C@H](C)/C=C/C=C/C=C/1C` [rapamycin, (3S,6R,7E,9R,10R,12R,14S,15E,17E,19E,21S,23S,26R,27R,34aS)-9,10,12,13,14,21,22,23,24,25,26,27,32,33,34,34a-hexadecahydro-9,27-dihydroxy-3-[(1R)-2-[(1S,3R,4R)-4-hydroxy-3-methoxycyclohexyl]-1-methylethyl]-10,21-dimethoxy-6,8,12,14,20,26-hexamethyl-23,27-epoxy-3H-pyrido[2,1-c][1,4]-oxaazacyclohentriacontine-1,5,11,28,29 (4H,6H,31H)-pentone], the body weight lost result in series [1] is listed as “about 10%”. In addition, the “lymphocytic infiltration (lymphocyte foci) of lacrimal gland” value in series [2] is reported as “less lymphocyte invasion”. Besides, the “IFN gamma expression in lacrimal gland” value in series [3] is listed as “sizeable reduction”. Moreover, the “rapamycin dose (concentration) that could be reached” value in series [4] is recorded as “could not reach such a high rapamycin concentration”. For the same molecule, the “bioavailability of the plain drug” value in series [5] is given as “less than 20%”.

B1: F24S24: ELP diblock copolymer (Val-Pro-Gly-Phe-Gly)24(Val-Pro-Gly-Ser-Gly)24 (SEQ ID NO: 13), forms nanoparticles (protein)
chain: VPGFGVPGFGVPGFGVPGFGVPGFGVPGFGVPGFGVPGFGVPGFGVPGFGVPGFGVPGFGVPGFGVPGFGVPGFGVPGFGVPGFGVPGFGVPGFGVPGFGVPGFGVPGFGVPGFGVPGFGVPGSGVPGSGVPGSGVPGSGVPGSGVPGSGVPGSGVPGSGVPGSGVPGSGVPGSGVPGSGVPGSGVPGSGVPGSGVPGSGVPGSGVPGSGVPGSGVPGSGVPGSGVPGSGVPGSGVPGSG
In the case of B1, the nanoparticle hydrodynamic radius in series [6] is reported as 15 nm. In addition, the “rapamycin encapsulation into plain ELP nanoparticles” value in series [7] is recorded as “efficiently encapsulated”.

B2: I48S48: ELP diblock copolymer (Val-Pro-Gly-Ile-Gly)48(Val-Pro-Gly-Ser-Gly)48 (SEQ ID NO: 12), forms nanoparticles (protein)
chain: VPGIGVPGIGVPGIGVPGIGVPGIGVPGIGVPGIGVPGIGVPGIGVPGIGVPGIGVPGIGVPGIGVPGIGVPGIGVPGIGVPGIGVPGIGVPGIGVPGIGVPGIGVPGIGVPGIGVPGIGVPGIGVPGIGVPGIGVPGIGVPGIGVPGIGVPGIGVPGIGVPGIGVPGIGVPGIGVPGIGVPGIGVPGIGVPGIGVPGIGVPGIGVPGIGVPGIGVPGIGVPGIGVPGIGVPGIGVPGIGVPGSGVPGSGVPGSGVPGSGVPGSGVPGSGVPGSGVPGSGVPGSGVPGSGVPGSGVPGSGVPGSGVPGSGVPGSGVPGSGVPGSGVPGSGVPGSGVPGSGVPGSGVPGSGVPGSGVPGSGVPGSGVPGSGVPGSGVPGSGVPGSGVPGSGVPGSGVPGSGVPGSGVPGSGVPGSGVPGSGVPGSGVPGSGVPGSGVPGSGVPGSGVPGSGVPGSGVPGSGVPGSGVPGSGVPGSGVPGSG
In turn, B2 displayed a nanoparticle hydrodynamic radius in series [6] of 24 nm. Besides, the “rapamycin encapsulation into plain ELP nanoparticles” value in series [7] is reported as “efficiently encapsulated”.

These data come from patent US20150209335A1, “METHODS AND SMALL MOLECULE THERAPEUTICS COMPRISING FUSED ELPS” (UNIVERSITY OF SOUTHERN CALIFORNIA, priority 2012, published 2015).
